{"source": "patent US10543250B2", "about": "“Antimicrobial fusion peptides” (Los Angeles Biomedical Research Institute at Harbor-UCLA …, priority 2015, dated 2020)", "key": {"[1]": {"tested_on": "MDRAB clinical isolate HUMC-1", "experiment": "Neutropenic murine model of MDRAB pneumonia", "type": "in vivo, Acinetobacter baumannii", "conditions": "for survival: neutropenic mice, aerosolized MDRAB HUMC-1, treatment for 3d, survival monitored to day 21, peptide 12.5 mg/kg IV qd, imipenem 15 mg/kg IP bid", "protocol": "Neutropenic mice (cortisone acetate [250 mg/kg; subQ]+cyclophosphamide [200 mg/kg; IP] on study days-2, +3, and +8) were infected on day 0 (aerosolized; MDRAB clinical isolate HUMC-1; 5×10^8 CFU; lung Cx-positive). Treatment initiated 4 hr or 24 hr post-infection and continued for 3d. Groups:control (PBS); imipenem (15 mg/kg; IP; bid); γ-RP-1 (12.5 mg/kg; IV; qd); γ-RP-1 (12.5 mg/kg; IV; qd). Survival was then monitored to day 21. At end point or 21d, lungs and spleens were cultured. Outcomes were compared by non-parametric analysis. All studies adhered to institutional and AAALAC animal care policies."}, "MDRAB": {"tested_on": "MDRAB", "experiment": "Biomatrix assay: efficacy in human blood, plasma or serum", "type": "cell-based, Acinetobacter baumannii", "conditions": "human blood ex vivo", "protocol": "Efficacies of RP-1 and γ-RP-1 in human blood, plasma, or serum were assessed. Peptide was added to biomatrix simultaneously with MDRAB (final inoculum 10^5 CFU/ml; peptide range […]; volume 100 μl). Controls were performed using Mueller Hinton broth (MHB; CLSI). Following incubation (constant agitation; 2 h, 37° C.), survival was quantified by culture (n=3) upon blood agar and defined as CFU/ml. Independent minimum, n=2."}, "Peptide pI": {"experiment": "Peptide pI", "type": "physicochemical", "protocol": "Antimicrobial agents: RP-1 (pI/Mw: 10.82/2162.78 Da) is an 18-amino synthetic peptide derived from PF-4 family kinocidins. γ-RP-1 (pI/Mw: 10.64/4444.5 Da) is a 39-amino synthetic peptide comprising a CXCL4 kinocidin γ-core motif-RP-1 construct. Stock peptides dissolved in sterile ddH2O were diluted in suitable buffers. Antibiotics were purchased as purified powder and re-suspended in PBS per the manufacturer guidelines."}, "[2]": {"tested_on": "wide panel of human pathogens", "experiment": "Efficacy of γ-RP-1 variants against panel of human pathogens at pH 5.5 and 7.5 (Example 6)", "type": "cell-based", "conditions": "pH 5.5 and 7.5, FIG. 16A-B", "protocol": "The efficacy of RP-1 and γ-RP-1, along with a number of peptide variants and suitable control, was tested against a wide panel of human pathogens.\nIn another experiments, the following peptides were tested."}, "[3]": {"tested_on": "P. berghei ANKA luciferase", "experiment": "In vivo antimalarial efficacy in infected mice", "conditions": "12.5 mg/kg, IV treatment daily for 5 days, compared to chloroquine at the same concentration", "description": "FIGS. 15 and 16 show the in vivo antimalarial activity of γ-RP-1 on Luciferase-expressing P. berghei ANKA (FIG. 15: single dose; FIG. 16: double dose). CQ: chloroquine."}, "[4]": {"tested_on": "wide panel of Gram-negative human pathogens", "experiment": "Efficacy against panel of Gram-negative human pathogens at pH 5.5 and 7.5 (Example 4)", "type": "cell-based", "conditions": "compared to any other peptide tested", "protocol": "The efficacy of RP-1 and γ-RP-1, along with a number of peptide variants and suitable control, was tested against a wide panel of Gram-negative human pathogens."}, "3D7 P. falciparum": {"tested_on": "3D7 P. falciparum", "experiment": "In vitro antimalarial activity", "type": "cell-based", "conditions": "at 12.5 mg/ml after incubation for 96 hour"}}, "note": "Entries after “also recorded” stand apart in the source; their conditions may differ.", "data": [{"compound": "C[C@@H](O)[C@H]1C(=O)N2C(C(=O)O)=C(SCCN=CN)C[C@H]12", "note": "[imipenem, reference compound]", "values": [{"measurement": "survival", "setting": "[1]", "value": 16, "unit": "%"}]}, {"compound": "γ-RP-1 (CPTAQLIATLKNGRKICLDLQALYKKFKKKLLKSLKRLG)", "values": [{"measurement": "efficacy in human blood", "setting": "MDRAB", "value": "significant efficacy; also recorded: greater efficacy"}, {"measurement": "Total MDRAB burden (CFU) in lungs and spleens, reduction", "setting": "[1]; as compared to control or imipenem treatments alone", "value": "> 2", "unit": "log CFU"}, {"measurement": "efficacy vs. MDRAB in a murine model of neutropenic pneumonia", "setting": "[1]; in vivo", "value": "significant efficacy"}, {"measurement": "survival", "setting": "[1]", "value": 72, "unit": "%"}, {"measurement": "pI", "setting": "Peptide pI", "value": 10.64}, {"measurement": "efficacy compared with RP-1 across bacterial species", "setting": "[2]", "value": "higher efficacy than RP-1"}, {"measurement": "antimalarial activity in vivo", "setting": "[3]", "value": "moderate antimalarial activity"}, {"measurement": "efficacy against individual organisms and across the broader panel", "setting": "[4]", "value": "overall best efficacy"}, {"measurement": "in vitro antimalarial effects, dose-response curve", "setting": "3D7 P. falciparum", "value": "excellent IC50 curve"}]}]}
